Measurements taken from patent publication US9012443B2 (Amgen Inc., priority 2011, dated 2015).

These compounds were tested against T1, Nav 1.7 (Homo sapiens (Human), UniProt Q15858) (assay: Nav 1.7 IWQ in vitro assay (IonWorks Quattro population patch-clamp)). Conditions: 293 cells stably transfected with Nav 1.7; first part of table; read-out: Nav 1.7 IWQ IC50.
Format: cell-based
Method: Nav 1.7 or Nav 1.5 IWQ In Vitro Assay
293 Cells stably transfected with either Nav 1.7 or Nav 1.5 were recorded in population patch-clamp mode with the IonWorks® Quattro automated electrophysiology system in accordance with the manufacturer's specifications (Molecular Devices, LLC, Sunnyvale, Calif.). Sodium channel currents were measured in response to a train of depolarizations that induced successively greater inactivation.
Cells were then left unclamped for a period of 3 to 8 minutes while a single concentration of test compound was added. Cells were then reclamped and put through the same voltage protocol. Current at the end of the 26th pulse to −20 mV was subtracted from the peak current evoked by the 26th pulse to −20 mV to correct for leak current. Percent block was calculated for each concentration in duplicate, and IC50 curves were fitted to percent block as a function of concentration.

T1 sequence (Q15858 whole entry): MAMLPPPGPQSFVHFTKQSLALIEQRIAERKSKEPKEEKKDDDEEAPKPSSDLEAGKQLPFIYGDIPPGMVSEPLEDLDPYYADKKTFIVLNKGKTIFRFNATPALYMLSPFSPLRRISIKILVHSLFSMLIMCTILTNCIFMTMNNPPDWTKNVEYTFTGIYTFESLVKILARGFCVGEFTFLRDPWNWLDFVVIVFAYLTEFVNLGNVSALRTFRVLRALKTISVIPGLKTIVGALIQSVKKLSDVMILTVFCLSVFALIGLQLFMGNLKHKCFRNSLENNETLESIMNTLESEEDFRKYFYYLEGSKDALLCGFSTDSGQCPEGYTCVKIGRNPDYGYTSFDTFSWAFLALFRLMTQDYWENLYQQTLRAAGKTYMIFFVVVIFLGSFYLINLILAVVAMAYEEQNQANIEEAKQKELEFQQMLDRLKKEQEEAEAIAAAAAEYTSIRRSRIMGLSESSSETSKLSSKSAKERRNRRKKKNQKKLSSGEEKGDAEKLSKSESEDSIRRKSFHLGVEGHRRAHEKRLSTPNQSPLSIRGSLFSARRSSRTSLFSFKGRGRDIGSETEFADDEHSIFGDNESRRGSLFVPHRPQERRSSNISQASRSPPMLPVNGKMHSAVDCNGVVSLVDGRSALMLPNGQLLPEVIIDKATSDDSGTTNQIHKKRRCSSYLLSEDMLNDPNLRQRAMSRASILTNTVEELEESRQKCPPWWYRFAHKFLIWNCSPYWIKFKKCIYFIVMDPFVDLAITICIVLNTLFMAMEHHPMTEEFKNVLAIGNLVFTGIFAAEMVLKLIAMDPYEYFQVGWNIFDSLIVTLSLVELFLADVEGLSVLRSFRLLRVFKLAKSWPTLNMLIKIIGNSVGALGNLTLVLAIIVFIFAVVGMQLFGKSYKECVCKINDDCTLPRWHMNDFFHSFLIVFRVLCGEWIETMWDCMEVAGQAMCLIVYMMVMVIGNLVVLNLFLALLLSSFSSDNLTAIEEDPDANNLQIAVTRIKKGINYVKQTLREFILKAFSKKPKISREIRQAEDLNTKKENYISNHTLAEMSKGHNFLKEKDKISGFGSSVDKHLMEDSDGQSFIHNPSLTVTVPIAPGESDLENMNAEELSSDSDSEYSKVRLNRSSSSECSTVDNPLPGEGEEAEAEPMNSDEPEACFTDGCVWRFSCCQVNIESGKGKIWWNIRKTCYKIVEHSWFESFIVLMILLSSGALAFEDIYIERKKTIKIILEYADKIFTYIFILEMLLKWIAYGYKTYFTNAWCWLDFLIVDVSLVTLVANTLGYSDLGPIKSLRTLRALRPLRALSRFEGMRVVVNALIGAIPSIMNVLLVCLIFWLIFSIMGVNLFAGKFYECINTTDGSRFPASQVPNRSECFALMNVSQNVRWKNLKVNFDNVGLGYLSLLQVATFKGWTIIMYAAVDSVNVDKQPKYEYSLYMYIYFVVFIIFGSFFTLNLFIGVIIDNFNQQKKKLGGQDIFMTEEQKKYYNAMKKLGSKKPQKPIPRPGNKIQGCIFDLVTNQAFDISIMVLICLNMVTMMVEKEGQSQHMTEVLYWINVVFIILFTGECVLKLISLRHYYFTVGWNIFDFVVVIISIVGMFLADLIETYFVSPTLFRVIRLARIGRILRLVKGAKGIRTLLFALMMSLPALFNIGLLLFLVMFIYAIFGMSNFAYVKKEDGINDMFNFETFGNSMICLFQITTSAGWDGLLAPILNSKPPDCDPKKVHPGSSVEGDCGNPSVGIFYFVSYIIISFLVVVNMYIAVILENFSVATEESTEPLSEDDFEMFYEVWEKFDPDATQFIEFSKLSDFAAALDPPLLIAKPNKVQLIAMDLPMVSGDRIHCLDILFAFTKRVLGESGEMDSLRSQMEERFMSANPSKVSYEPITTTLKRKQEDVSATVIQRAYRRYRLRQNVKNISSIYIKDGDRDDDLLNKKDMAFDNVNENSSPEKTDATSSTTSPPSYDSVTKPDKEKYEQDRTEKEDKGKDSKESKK

| IC50 | Structure (SMILES) |
| --- | --- |
| 300 nM | O=S(=O)(Nc1ncns1)c1ccc2c(N3CCOC(c4ccccc4)C3)cccc2c1 (racemic) [Example 14 (mixture of isomers)] |
| 520 nM | O=S(=O)(Nc1ncns1)c1ccc2c(N3CCOC(c4ccccc4)C3)cccc2c1 (single isomer, unassigned) [14 (isomer 1), 5-(2-phenylmorpholino)-N-(1,2,4-thiadiazol-5-yl)naphthalene-2-sulfonamide] |
| 340 nM | Cc1ccc(-c2cccc3cc(S(=O)(=O)Nc4ncns4)ccc23)c(Cl)c1 [Example 6] |
| 7760 nM | O=S(=O)(Nc1ncns1)c1ccc2c(-c3ccncc3)cccc2c1 [Example 7] |
| 3560 nM | O=S(=O)(Nc1ncns1)c1ccc2c(N3CCOCC3)cccc2c1 [Example 13] |
| 1290 nM | CC1(c2ccccc2)CN(c2cccc3cc(S(=O)(=O)Nc4ncns4)ccc23)CCO1 (centres unmarked) [Example 15] |
| 2370 nM | CC1CN(c2cccc3cc(S(=O)(=O)Nc4ncns4)ccc23)CCO1 (centres unmarked) [Example 16] |
| 4560 nM | COC(=O)C1CN(c2cccc3cc(S(=O)(=O)Nc4ncns4)ccc23)CCO1 (centres unmarked) [Example 17, METHYL 4-(6-(N-(1,2,4-THIADIAZOL-5-YL)SULFAMOYL)NAPHTHALEN-1-YL)MORPHOLINE-2-CARBOXYLATE] |
| 710 nM | CCC1CN(c2cccc3cc(S(=O)(=O)Nc4ncns4)ccc23)CCO1 (centres unmarked) [Example 18] |
| 1180 nM | CN(C)C(=O)C1CN(c2cccc3cc(S(=O)(=O)Nc4ncns4)ccc23)CCO1 (centres unmarked) [Example 19] |
| 3140 nM | CC(C)(O)C1CN(c2cccc3cc(S(=O)(=O)Nc4ncns4)ccc23)CCO1 (centres unmarked) [Example 20] |
| 20 nM | O=S(=O)(Nc1ncns1)c1ccc2c(-c3ccc(C(F)(F)F)cc3-c3cn[nH]c3)cccc2c1 [Example 21] |
| 30 nM | O=S(=O)(Nc1ncns1)c1ccc2c(-c3ccc(Cl)cc3OC(F)F)cccc2c1 [Example 24] |
| 290 nM | COc1cc(C(F)(F)F)ccc1-c1cccc2cc(S(=O)(=O)Nc3nccs3)ccc12 [Example 41] |

The compounds below were run against T1, Nav 1.7 (assay: Nav 1.7 in vitro PX assay (PatchXpress whole cell voltage clamp)). Conditions: 293 cells, human Nav1.7, partially inactivated state; read-out: Nav1.7 PX IC50 IP.
Format: cell-based
Method: Nav 1.7 In Vitro PX Assay
293 cells stably transfected with human Nav1.7 were recorded in whole cell voltage clamp mode with the PatchXpress automated electrophysiology system (Molecular Devices, LLC, Sunnyvale, Calif.). Compound effects were measured on a partially inactivated state of the sodium channel. Cells were clamped to a holding potential yielding 20 to 50% inactivation. To elicit sodium current, channels were activated by pulsing to −10 mV for 20 msec. […] A single concentration of test compound was applied to cells for a duration of 3 minutes. Peak sodium current was measured at the end of the compound addition period to determine percent inhibition. Three to five cells were tested per concentration, and IC50 curves were fitted to percent inhibition as a function of concentration.

| IC50 | Structure (SMILES) |
| --- | --- |
| 1780 nM | COc1cc(-c2ccc(C)o2)ccc1-c1nccc2cc(S(=O)(=O)Nc3ccncn3)ccc12 [Example 461] |
| 567 nM | COc1cc(Oc2ccccc2F)ccc1-c1nccc2cc(S(=O)(=O)Nc3ccncn3)ccc12 [Example 465, 1-(4-(2-FLUOROPHENOXY)-2-METHOXYPHENYL)-N-(PYRIMIDIN-4-YL)ISOQUINOLINE-6-SULFONAMIDE] |
| 1360 nM | COc1cc(-c2cccnc2F)ccc1-c1nccc2cc(S(=O)(=O)Nc3ccncn3)ccc12 [Example 473, 1-(4-(2-FLUOROPYRIDIN-3-YL)-2-METHOXYPHENYL)-N-(PYRIMIDIN-4-YL)ISOQUINOLINE-6-SULFONAMIDE] |
| 2610 nM | COc1cc(-c2ccnc(F)c2)ccc1-c1nccc2cc(S(=O)(=O)Nc3ccncn3)ccc12 [Example 474, 1-(4-(2-FLUOROPYRIDIN-4-YL)-2-METHOXYPHENYL)-N-(PYRIMIDIN-4-YL)ISOQUINOLINE-6-SULFONAMIDE] |
| 1880 nM | COc1cc(-c2cncc(F)c2)ccc1-c1nccc2cc(S(=O)(=O)Nc3ccncn3)ccc12 [Example 475, 1-(4-(5-FLUOROPYRIDIN-3-YL)-2-METHOXYPHENYL)-N-(PYRIMIDIN-4-YL)ISOQUINOLINE-6-SULFONAMIDE] |
| 2770 nM | COc1cc(-c2c(C)ccnc2F)ccc1-c1nccc2cc(S(=O)(=O)Nc3ccncn3)ccc12 [Example 480, 1-(4-(2-FLUORO-4-METHYLPYRIDIN-3-YL)-2-METHOXYPHENYL)-N-(PYRIMIDIN-4-YL)ISOQUINOLINE-6-SULFONAMIDE] |
| 778 nM | COc1cc(-c2cccnc2OC)ccc1-c1nccc2cc(S(=O)(=O)Nc3ccncn3)ccc12 [Example 482, 1-(2-METHOXY-4-(2-METHOXYPYRIDIN-3-YL)PHENYL)-N-(PYRIMIDIN-4-YL)ISOQUINOLINE-6-SULFONAMIDE] |
| 1400 nM | COc1ccc(-c2ccc(-c3nccc4cc(S(=O)(=O)Nc5ccncn5)ccc34)c(OC)c2)cn1 [Example 483, 1-(2-METHOXY-4-(6-METHOXYPYRIDIN-3-YL)PHENYL)-N-(PYRIMIDIN-4-YL)ISOQUINOLINE-6-SULFONAMIDE] |
| 1830 nM | COc1cc(-c2ccc3[nH]ccc3c2)ccc1-c1nccc2cc(S(=O)(=O)Nc3ccncn3)ccc12 [Example 489, 1-(4-(1H-INDOL-5-YL)-2-METHOXYPHENYL)-N-(PYRIMIDIN-4-YL)ISOQUINOLINE-6-SULFONAMIDE] |
| 830 nM | COc1nc(-c2ccc(F)c(F)c2)ccc1-c1nccc2cc(S(=O)(=O)Nc3ccncn3)ccc12 [Example 499, 1-(6-(3,4-DIFLUOROPHENYL)-2-METHOXYPYRIDIN-3-YL)-N-(PYRIMIDIN-4-YL)ISOQUINOLINE-6-SULFONAMIDE] |
| 1590 nM | COc1ccc(Cl)cc1-c1n[nH]c(=O)c2cc(S(=O)(=O)Nc3ccncn3)ccc12 [Example 504, 1-(5-CHLORO-2-METHOXYPHENYL)-4-OXO-N-(PYRIMIDIN-4-YL)-3,4-DIHYDROPHTHALAZINE-6-SULFONAMIDE] |
| 3000 nM | COc1cc(C(F)(F)F)ccc1-c1n[nH]c(=O)c2cc(S(=O)(=O)Nc3ccncn3)ccc12 [Example 506, 1-(2-METHOXY-4-(TRIFLUOROMETHYL)PHENYL)-4-OXO-N-(PYRIMIDIN-4-YL)-3,4-DIHYDROPHTHALAZINE-6-SULFONAMIDE] |
| 1300 nM | COc1ccccc1-c1n[nH]c(=O)c2cc(S(=O)(=O)Nc3ncns3)ccc12 [Example 508, 1-(2-METHOXYPHENYL)-4-OXO-N-(1,2,4-THIADIAZOL-5-YL)-3,4-DIHYDROPHTHALAZINE-6-SULFONAMIDE] |
| 1050 nM | COc1cc(C2(F)COC2)ccc1-c1nc(C)nc2cc(S(=O)(=O)Nc3nccs3)ccc12 [Example 516, 4-(4-(3-FLUOROOXETAN-3-YL)-2-METHOXYPHENYL)-2-METHYL-N-(THIAZOL-2-YL)QUINAZOLINE-7-SULFONAMIDE] |
| 1280 nM | COc1cc(C#N)ccc1-c1nc(C)nc2cc(S(=O)(=O)Nc3nccs3)ccc12 [Example 517, 4-(4-CYANO-2-METHOXYPHENYL)-2-METHYL-N-(THIAZOL-2-YL)QUINAZOLINE-7-SULFONAMIDE] |
| 2600 nM | COc1cc(C(F)(F)F)ccc1-c1nc(C)nc2cc(S(=O)(=O)Nc3ccncn3)ccc12 [Example 518, 4-(2-METHOXY-4-(TRIFLUOROMETHYL)PHENYL)-2-METHYL-N-(PYRIMIDIN-4-YL)QUINAZOLINE-7-SULFONAMIDE] |
| 29300 nM | COC[C@H]1CCCN1c1ncnc2cc(S(=O)(=O)Nc3nccs3)ccc12 [Example 534, (R)-4-(2-(METHOXYMETHYL)PYRROLIDIN-1-YL)-N-(THIAZOL-2-YL)QUINAZOLINE-7-SULFONAMIDE] |
| 1800 nM | COc1ncc(Cl)cc1-c1ncnc2cc(S(=O)(=O)Nc3nccs3)ccc12 [Example 541, 4-(5-CHLORO-2-METHOXYPYRIDIN-3-YL)-N-(THIAZOL-2-YL)QUINAZOLINE-7-SULFONAMIDE] |
| 5020 nM | Cc1cc(C#N)ccc1-c1ncnc2cc(S(=O)(=O)Nc3nccs3)ccc12 [Example 542] |
| 4560 nM | COc1cc(C(F)(F)F)ccc1-c1nc(=O)[nH]c2cc(S(=O)(=O)Nc3nccs3)ccc12 [Example 543, 4-(2-METHOXY-4-(TRIFLUOROMETHYL)PHENYL)-2-OXO-N-(THIAZOL-2-YL)-1,2-DIHYDROQUINAZOLINE-7-SULFONAMIDE] |
| 709 nM | COc1cc(C(F)(F)F)ccc1-c1c[nH]c(=O)c2cc(S(=O)(=O)Nc3nccs3)ccc12 [Example 544, 4-(2-METHOXY-4-(TRIFLUOROMETHYL)PHENYL)-1-OXO-N-(THIAZOL-2-YL)-1,2-DIHYDROISOQUINOLINE-7-SULFONAMIDE] |

| Structure (SMILES) | IC50 |
| --- | --- |
| COc1cc(-c2cccnc2C)ccc1-c1nccc2cc(S(=O)(=O)Nc3ccncn3)ccc12 [Example 476, 1-(2-METHOXY-4-(2-METHYLPYRIDIN-3-YL)PHENYL)-N-(PYRIMIDIN-4-YL)ISOQUINOLINE-6-SULFONAMIDE] | 2890 nM |
| COc1cc(-c2ccc(C)nc2)ccc1-c1nccc2cc(S(=O)(=O)Nc3ccncn3)ccc12 [Example 477, 1-(2-METHOXY-4-(6-METHYLPYRIDIN-3-YL)PHENYL)-N-(PYRIMIDIN-4-YL)ISOQUINOLINE-6-SULFONAMIDE] | 4040 nM |
| COc1cc(-c2cncc(C)c2)ccc1-c1nccc2cc(S(=O)(=O)Nc3ccncn3)ccc12 [Example 478, 1-(2-METHOXY-4-(5-METHYLPYRIDIN-3-YL)PHENYL)-N-(PYRIMIDIN-4-YL)ISOQUINOLINE-6-SULFONAMIDE] | 3640 nM |
| COc1cc(-c2cnc(F)c(C)c2)ccc1-c1nccc2cc(S(=O)(=O)Nc3ccncn3)ccc12 [Example 481, 1-(4-(6-FLUORO-5-METHYLPYRIDIN-3-YL)-2-METHOXYPHENYL)-N-(PYRIMIDIN-4-YL)ISOQUINOLINE-6-SULFONAMIDE] | 788 nM |
| COc1cc(Cl)ccc1-c1ncnc2cc(S(=O)(=O)Nc3ccncn3)ccc12 [Example 526, 4-(4-CHLORO-2-METHOXYPHENYL)-N-(PYRIMIDIN-4-YL)QUINAZOLINE-7-SULFONAMIDE] | 2300 nM |
| O=S(=O)(Nc1nccs1)c1ccc2c(-c3ccc(C(F)(F)F)cc3O)ncnc2c1 [Example 533, 4-(2-HYDROXY-4-(TRIFLUOROMETHYL)PHENYL)-N-(THIAZOL-2-YL)QUINAZOLINE-7-SULFONAMIDE] | 4090 nM |
